These results are taken from ChEMBL document CHEMBL1909046, “DrugMatrix in vitro pharmacology data”.

Experiment [1] has as its target 5-hydroxytryptamine receptor 6 (Homo sapiens, UniProt P50406). The experiment is classed as cell membranes, HeLa, Membrane. As to conditions: hela. Also: in other assays of this panel Not Active means under 50% inhibition at 10 µM.
A short description of experiment [2]: DRUGMATRIX: GABAA, Chloride Channel, TBOB radioligand binding (ligand: [3H] TBOB). The class given is cell membranes, Rattus norvegicus, Wistar, Cerebral cortex, Membrane. As to conditions: Not Active = under 50% inhibition at 10 µM.
A short description of experiment [3]: DRUGMATRIX: Glutamate, NMDA, Phencyclidine radioligand binding (ligand: [3H] TCP). The experiment is classed as cell membranes, Rattus norvegicus, Wistar, Cerebral cortex, Membrane. As to conditions: Not Active = under 50% inhibition at 10 µM.
The target in the next experiment is Melanocortin receptor 3 (Homo sapiens, UniProt P41968). The experiment is classed as cell membranes, Membrane. As to conditions: hek293. Also: in other assays of this panel Not Active means under 50% inhibition at 10 µM.
Melanocortin receptor 3, sequence (P41968 whole entry): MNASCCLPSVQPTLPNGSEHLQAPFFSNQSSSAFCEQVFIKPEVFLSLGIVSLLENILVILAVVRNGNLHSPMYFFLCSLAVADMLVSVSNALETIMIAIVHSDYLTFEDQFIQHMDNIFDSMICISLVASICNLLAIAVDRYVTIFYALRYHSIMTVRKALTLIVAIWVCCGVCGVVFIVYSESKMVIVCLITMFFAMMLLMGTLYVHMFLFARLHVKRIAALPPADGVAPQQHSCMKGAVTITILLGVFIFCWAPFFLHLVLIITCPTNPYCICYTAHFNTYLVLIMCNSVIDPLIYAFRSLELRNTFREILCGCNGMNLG
A short description of experiment [4]: DRUGMATRIX: Potassium Channel [KATP] radioligand binding (ligand: [3H] Glyburide). The experiment is classed as cell membranes, Membrane. As to conditions: hit-t15; Not Active = under 50% inhibition at 10 µM.
Another experiment concerns the target T1, Caspase-1 (Homo sapiens, UniProt P29466).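 Also: Caspase-1 enzyme inhibition assay with a peptide substrate; in other assays of this panel Not Active means under 50% inhibition at 10 µM.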
T1 sequence (P29466 whole entry): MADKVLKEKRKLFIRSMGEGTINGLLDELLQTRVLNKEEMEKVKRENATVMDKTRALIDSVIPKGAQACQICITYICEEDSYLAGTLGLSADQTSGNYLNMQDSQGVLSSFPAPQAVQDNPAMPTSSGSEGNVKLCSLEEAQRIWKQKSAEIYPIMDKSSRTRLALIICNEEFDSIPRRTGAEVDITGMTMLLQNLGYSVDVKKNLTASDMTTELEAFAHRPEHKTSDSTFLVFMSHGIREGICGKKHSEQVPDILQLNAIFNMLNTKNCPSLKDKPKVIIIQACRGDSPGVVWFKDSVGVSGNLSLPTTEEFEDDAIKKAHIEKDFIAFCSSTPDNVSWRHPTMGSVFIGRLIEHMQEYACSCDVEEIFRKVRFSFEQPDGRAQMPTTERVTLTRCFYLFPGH
Details: species or system Escherichia coli.

5-hydroxytryptamine receptor 6, sequence (P50406 whole entry): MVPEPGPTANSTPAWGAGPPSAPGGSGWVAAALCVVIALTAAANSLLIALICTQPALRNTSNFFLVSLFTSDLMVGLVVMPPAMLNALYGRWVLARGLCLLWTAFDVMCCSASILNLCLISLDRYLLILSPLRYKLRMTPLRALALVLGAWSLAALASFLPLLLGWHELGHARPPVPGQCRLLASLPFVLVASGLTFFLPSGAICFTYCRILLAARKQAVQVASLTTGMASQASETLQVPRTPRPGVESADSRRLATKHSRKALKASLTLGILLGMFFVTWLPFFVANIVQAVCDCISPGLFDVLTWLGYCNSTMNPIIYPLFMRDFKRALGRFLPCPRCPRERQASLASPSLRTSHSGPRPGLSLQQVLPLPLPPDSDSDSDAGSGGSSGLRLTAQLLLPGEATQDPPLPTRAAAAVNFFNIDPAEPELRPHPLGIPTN

A word on the IC50: it is the concentration that gives 50% inhibition. In general, Ki refers to the dissociation constant of the complex between target and ligand, obtained from inhibition or displacement. Consider `CCN(CC)CCCC(C)Nc1c2ccc(Cl)cc2nc2ccc(OC)cc12` (stereo not given) [QUINACRINE], for which the IC50 result (in experiment [1]; in experiment [2]; in experiment [3]; at Melanocortin receptor 3; in experiment [4]; on Caspase-1) was “Not Active” each time. In addition, the inhibitory constant (Ki) result in experiment [2], in experiment [3] and in experiment [4] was “Not Active” each time.
`C[C@]12C=CC(=O)C=C1CC[C@H]1[C@@H]3C[C@@H](O)[C@](O)(C(=O)CO)[C@@]3(C)C[C@H](O)[C@@]12F` [TRIAMCINOLONE]: the half-inhibitory concentration (IC50) result (in experiment [1]; in experiment [2]; in experiment [3]; against Melanocortin receptor 3; in experiment [4]; at Caspase-1) was “Not Active” throughout. Moreover, the inhibition constant Ki result in experiment [2], in experiment [3] and in experiment [4] was “Not Active” throughout.
Turning to `CC[C@]1(O)C[C@@H]2CN(CCc3c([nH]c4ccccc34)[C@@](C(=O)OC)(c3cc4c(cc3OC)N(C)[C@H]3[C@@](O)(C(N)=O)[C@H](O)[C@]5(CC)C=CCN6CC[C@]43[C@@H]65)C2)C1` [VINDESINE], the IC50 result (in experiment [1]; in experiment [2]; in experiment [3]; on Melanocortin receptor 3; in experiment [4]; against Caspase-1) was “Not Active” throughout. Also, the Ki result in experiment [2], in experiment [3] and in experiment [4] was “Not Active” each time.
For `CCN(C(C)=O)c1cccc(-c2ccnc3c(C#N)cnn23)c1` [ZALEPLON], the concentration for half-maximal inhibition (IC50) entry (in experiment [1]; in experiment [2]; in experiment [3]; against Melanocortin receptor 3; in experiment [4]; at Caspase-1) was “Not Active” throughout. Also, the Ki entry in experiment [2], in experiment [3] and in experiment [4] was “Not Active” in each case.
As for COBALTOUS CHLORIDE, the concentration for half-maximal inhibition (IC50) entry (in experiment [1]; in experiment [2]; in experiment [3]; at Melanocortin receptor 3; in experiment [4]; at Caspase-1) was “Not Active” each time. The Ki entry (in experiment [1]; in experiment [2]; in experiment [3]; at Melanocortin receptor 3; in experiment [4]; at Caspase-1) was “Not Active” in each case.
Turning to COLISTIN, the IC50 entry in experiment [1] is “Not Active”; in experiment [2] it was “Not Active”; in experiment [3], “Not Active”; on Melanocortin receptor 3 (read-out: IC50), 0.193 µM; in experiment [4], “Not Active”; against Caspase-1, “Not Active”. The inhibition constant Ki entry is “Not Active” in experiment [1]; “Not Active” in experiment [2]; “Not Active” in experiment [3]; 0.168 µM at Melanocortin receptor 3 (read-out: Ki); “Not Active” in experiment [4]; “Not Active” on Caspase-1.
